Assay results taken from US20220220373A1, “FLUORESCENT PROBES FOR MONOACYLGLYCEROL LIPASE (MAGL)” (Hoffmann-La Roche Inc., priority 2019, published 2022).

The compounds below were run against T1, MAGL (Homo sapiens, UniProt Q99685) (assay: 2-AG assay (MAGL inhibitory activity, hydrolysis of 2-arachidonoylglycerol followed by mass spectrometry)). Details: 50 pM MAGL, 8 μM 2-arachidonoylglycerol, 15 min pre-incubation, 30 min incubation at RT.
T1 sequence (Q99685 1-303): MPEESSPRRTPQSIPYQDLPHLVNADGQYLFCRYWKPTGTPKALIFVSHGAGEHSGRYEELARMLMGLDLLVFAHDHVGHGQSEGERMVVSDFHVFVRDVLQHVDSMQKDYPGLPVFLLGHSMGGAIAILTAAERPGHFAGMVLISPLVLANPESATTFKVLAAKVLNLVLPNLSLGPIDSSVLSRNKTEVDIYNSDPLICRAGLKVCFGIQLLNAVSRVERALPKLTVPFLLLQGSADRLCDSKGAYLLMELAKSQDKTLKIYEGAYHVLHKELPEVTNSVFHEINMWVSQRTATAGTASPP
Assay type: biochemical
Method: Compounds were profiled for MAGL inhibitory activity by determining the enzymatic activity by following the hydrolysis of the natural substrate 2-arachidonoylglycerol (2-AG) resulting in arachidonic acid, which can be followed by mass spectrometry. This assay is hereinafter abbreviated “2-AG assay”.
The 2-AG assay was carried out in 384 well assay plates (PP, Greiner Cat#784201) in a total volume of 20 μL. Compound dilutions were made in 100% DMSO (VWR Chemicals 23500.297) in a polypropylene plate in 3-fold dilution steps to give a final concentration range in the assay from 12.5 μM to 0.8 pM. […] compound dilutions (100% DMSO) were added to 9 μL MAGL in assay buffer (50 mM TRIS (GIBCO, 15567-027), 1 mM EDTA (Fluka, 03690-100 mL), 0.01% (v/v) Tween. After shaking, the plate was incubated for 15 min at RT. To start the reaction, 10 μL 2-arachidonoylglycerol in assay buffer was added. The final concentrations in the assay was 50 pM MAGL and 8 μM 2-arachidonoylglyerol. After shaking and 30 min incubation at RT, the reaction was quenched by the addition of […] of ACN containing 4 μM of d8-arachidonic acid. The amount of arachidonic acid was traced by an online SPE system (Agilent Rapidfire) coupled to a triple quadrupole mass spectrometer (Agilent 6460). A C18 SPE cartridge (G9205A) was used in an ACN/water liquid setup. The mass spectrometer was operated in negative electrospray mode following the mass transitions 303.1→259.1 for arachidonic acid and 311.1→267.0 for d8-arachidonic acid. The activity of the compounds was calculated based on the ratio of intensities [arachidonic acid/d8-arachidonic acid].

SMILES	IC50
NCCOc1cccc(C(c2ccccc2)C2CCN(C(=O)N3CC[C@@H]4OCC(=O)N[C@@H]4C3)CC2)c1 (single isomer, unassigned) [Example 6, (4aR,8aS)-6-[4-[(S or R)-[3-(2-Aminoethoxy)phenyl]-phenyl-methyl]piperidine-1-carbonyl]-4,4a,5,7,8,8a-hexahydropyrido[4,3-b][1,4]oxazin-3-one]	5.3 nM
NCCOc1cccc(C(c2ccccc2)C2CCN(C(=O)N3CC[C@@H]4OCC(=O)N[C@@H]4C3)CC2)c1 (single isomer, unassigned) [Example 7, (4aR,8aS)-6-[4-[(R or S)-[3-(2-Aminoethoxy)phenyl]-phenyl-methyl]piperidine-1-carbonyl]-4,4a,5,7,8,8a-hexahydropyrido[4,3-b][1,4]oxazin-3-one]	48.5 nM
CC(C)(C)OC(=O)NCCOCCOCCC(=O)NCCOc1cccc(C(c2ccccc2)C2CCN(C(=O)N3CC[C@@H]4OCC(=O)N[C@@H]4C3)CC2)c1 (single isomer, unassigned) [Example 9, tert-Butyl N-[2-[2-[3-[2-[3-[(R or S)-[1-[(4aR,8aS)-3-oxo-4,4a,5,7,8,8a-hexahydropyrido[4,3-b][1,4]oxazine-6-carbonyl]-4-piperidyl]-phenyl-methyl]phenoxy]ethylamino]-3-oxo-propoxy]ethoxy]ethyl]carbamate]	2.6 nM
NCCOCCOCCC(=O)NCCOc1cccc(C(c2ccccc2)C2CCN(C(=O)N3CC[C@@H]4OCC(=O)N[C@@H]4C3)CC2)c1 (single isomer, unassigned) [Example 10, N-[2-[3-[(R or S)-[1-[(4aR,8aS)-3-Oxo-4,4a,5,7,8,8a-hexahydropyrido[4,3-b][1,4]oxazine-6-carbonyl]-4-piperidyl]-phenyl-methyl]phenoxy]ethyl]-3-[2-(2-aminoethoxy)ethoxy]propanamide]	7.8 nM
NCCOCCOCCC(=O)NCCOc1cccc(C(c2ccccc2)C2CCN(C(=O)N3CC[C@@H]4OCC(=O)N[C@@H]4C3)CC2)c1 (single isomer, unassigned) [Example 11, N-[2-[3-[(S or R)-[1-[(4aR,8aS)-3-Oxo-4,4a,5,7,8,8a-hexahydropyrido[4,3-b][1,4]oxazine-6-carbonyl]-4-piperidyl]-phenyl-methyl]phenoxy]ethyl]-3-[2-(2-aminoethoxy)ethoxy]propanamide]	2930 nM
CC(C)(C)OC(=O)NCCOCCC(=O)NCCOc1cccc([C@@H](c2ccccc2)C2CCN(C(=O)N3CC[C@@H]4OCC(=O)N[C@@H]4C3)CC2)c1 (single isomer, unassigned) [Example 15, tert-Butyl N-[2-[3-[2-[3-[(R or S)-[1-1(4aR,8aS)-3-oxo-4,4a,5,7,8,8a-hexahydropyrido[4,3-b][1,4]oxazine-6-carbonyl]-4-piperidyl]-phenyl-methyl]phenoxy]ethylamino]-3-oxo-propoxy]ethyl]carbamate]	3.2 nM
NCCOCCC(=O)NCCOc1cccc([C@@H](c2ccccc2)C2CCN(C(=O)N3CC[C@@H]4OCC(=O)N[C@@H]4C3)CC2)c1 (single isomer, unassigned) [Example 16, N-[2-[3-[(R or S)-[1-1(4aR,8aS)-3-Oxo-4,4a,5,7,8,8a-hexahydropyrido[4,3-b][1,4]oxazine-6-carbonyl]-4-piperidyl]phenyl-methyl]phenoxy]ethyl]-3-(2-aminoethoxy)propanamide]	18.1 nM
O=C(CCOCCNc1ccc([N+](=O)[O-])c2nonc12)NCCOc1cccc(C(c2ccccc2)C2CCN(C(=O)N3CCC4OCC(=O)NC4C3)CC2)c1 (single isomer, unassigned) [Example 18, N-[2-[3-[(R or S)-[1-1(4aR,8aS)-3-Oxo-4,4a,5,7,8,8a-hexahydropyrido[4,3-b][1,4]oxazine-6-carbonyl]-4-piperidyl]-phenyl-methyl]phenoxy]ethyl]-3-12-[(4-nitro-2,1,3-benzoxadiazol-7-yl)amino]ethoxy]propanamide]	7.2 nM

Stronger by IC50, values ahead:

IC50	SMILES
0.3 nM	CC(C)(C)OC(=O)NCCOc1cccc(C(c2ccccc2)C2CCN(C(=O)N3CC[C@@H]4OCC(=O)N[C@@H]4C3)CC2)c1 (single isomer, unassigned) [Example 4, tert-Butyl N-[2-[3-[(R or S)-[1-[(4aR,8aS)-3-oxo-4,4a,5,7,8,8a-hexahydropyrido[4,3-b][1,4]oxazine-6-carbonyl]-4-piperidyl]-phenyl-methyl]phenoxy]ethyl]carbamate]
0.2 nM	CC(C)(C)OC(=O)NCCOc1cccc(C(c2ccccc2)C2CCN(C(=O)N3CC[C@@H]4OCC(=O)N[C@@H]4C3)CC2)c1 (single isomer, unassigned) [Example 5, tert-Butyl N-[2-[3-[(S or R)-[1-[(4aR,8aS)-3-oxo-4,4a,5,7,8,8a-hexahydropyrido[4,3-b][1,4]oxazine-6-carbonyl]-4-piperidyl]-phenyl-methyl]phenoxy]ethyl]carbamate]
1.5 nM	CC(C)(C)OC(=O)NCCOCCOCCC(=O)NCCOc1cccc([C@H](c2ccccc2)C2CCN(C(=O)N3CC[C@@H]4OCC(=O)N[C@@H]4C3)CC2)c1 (single isomer, unassigned) [Example 8, tert-Butyl N-[2-[2-[3-[2-[3-[(S or R)-11-1(4aR,8aS)-3-oxo-4,4a,5,7,8,8a-hexahydropyrido[4,3-b][1,4]oxazine-6-carbonyl]-4-piperidyl]-phenyl-methyl]phenoxy]ethylamino]-3-oxo-propoxy]ethoxy]ethyl]carbamate]
0.5 nM	O=C(CCOCCOCCNc1ccc([N+](=O)[O-])c2nonc12)NCCOc1cccc(C(c2ccccc2)C2CCN(C(=O)N3CC[C@@H]4OCC(=O)N[C@@H]4C3)CC2)c1 (single isomer, unassigned) [Example 12, N-[2-[3-[(S or R)-[1-[(4aR,8aS)-3-Oxo-4,4a,5,7,8,8a-hexahydropyrido[4,3-b][1,4]oxazine-6-carbonyl]-4-piperidyl]-phenyl-methyl]phenoxy]ethyl]-3-[2-[2-[(4-nitro-2,1,3-benzoxadiazol-7-yl)amino]ethoxy]ethoxy]propanamide]
1.6 nM	O=C(CCOCCOCCNc1ccc([N+](=O)[O-])c2nonc12)NCCOc1cccc(C(c2ccccc2)C2CCN(C(=O)N3CC[C@@H]4OCC(=O)N[C@@H]4C3)CC2)c1 (single isomer, unassigned) [Example 13, N-[2-[3-[(R or S)-[1-[(4aR,8aS)-3-Oxo-4,4a,5,7,8,8a-hexahydropyrido[4,3-b][1,4]oxazine-6-carbonyl]-4-piperidyl]phenyl-methyl]phenoxy]ethyl]-3-[2-[2-[(4-nitro-2,1,3-benzoxadiazol-7-yl)amino]ethoxy]ethoxy]propanamide]
1.3 nM	CC(C)(C)OC(=O)NCCOCCC(=O)NCCOc1cccc(C(c2ccccc2)C2CCN(C(=O)N3CC[C@@H]4OCC(=O)N[C@@H]4C3)CC2)c1 (single isomer, unassigned) [Example 14, tert-Butyl N-[2-[3-[2-[3-[(S or R)-[1-[(4aR,8aS)-3-oxo-4,4a,5,7,8,8a-hexahydropyrido[4,3-b][1,4]oxazine-6-carbonyl]-4-piperidyl]-phenyl-methyl]phenoxy]ethylamino]-3-oxo-propoxy]ethyl]carbamate]
0.7 nM	O=C(CCOCCNc1ccc([N+](=O)[O-])c2nonc12)NCCOc1cccc(C(c2ccccc2)C2CCN(C(=O)N3CCC4OCC(=O)NC4C3)CC2)c1 (single isomer, unassigned) [Example 17, N-[2-[3-[(S or R)-11-1(4aR,8aS)-3-Oxo-4,4a,5,7,8,8a-hexahydropyrido[4,3-b][1,4]oxazine-6-carbonyl]-4-piperidyl]-phenyl-methyl]phenoxy]ethyl]-3-[2-[(4-nitro-2,1,3-benzoxadiazol-7-yl)amino]ethoxy]propanamide]
2 nM	CC(C)(C)OC(=O)NCCOCCOCCOCCC(=O)NCCOc1cccc(C(c2ccccc2)C2CCN(C(=O)N3CC[C@@H]4OCC(=O)N[C@@H]4C3)CC2)c1 (single isomer, unassigned) [Example 19, tert-Butyl N-[2-[2-[2-[3-[2-[3-[(S or R)-[1-[(4aR,8aS)-3-oxo-4,4a,5,7,8,8a-hexahydropyrido[4,3-b][1,4]oxazine-6-carbonyl]-4-piperidyl]-phenyl-methyl]phenoxy]ethylamino]-3-oxo-propoxy]ethoxy]ethoxy]ethyl]carbamate]
